Assay [1] deals with T1, Gal4/PPARδ(β) (Homo sapiens, UniProt Q03181).
T1 construct: human PPARδ(β) LBD (amino acid 139-441); {Schmidt et al; expressed in transfected cells; host or cells: CHO cells, stably transfected
In words: Cell based transactivation assay, δ agonist mode (Gal4 RE driven SEAP reporter in CHO cells). The note with it: CHO cells stably transfected with Gal4/PPARδ(β); 3.16-31600 nM; FIG. 4.

Assay [2] addresses T2, PPARδ(β) LBD (Homo sapiens, UniProt Q03181).
T2 construct: His-tagged PPARδ(β) LBD (amino acid 139-441, Schmidt et al); made in house; host or cells: E. coli (crude lysate supernatant used)
T2 sequence (Q03181 139-441): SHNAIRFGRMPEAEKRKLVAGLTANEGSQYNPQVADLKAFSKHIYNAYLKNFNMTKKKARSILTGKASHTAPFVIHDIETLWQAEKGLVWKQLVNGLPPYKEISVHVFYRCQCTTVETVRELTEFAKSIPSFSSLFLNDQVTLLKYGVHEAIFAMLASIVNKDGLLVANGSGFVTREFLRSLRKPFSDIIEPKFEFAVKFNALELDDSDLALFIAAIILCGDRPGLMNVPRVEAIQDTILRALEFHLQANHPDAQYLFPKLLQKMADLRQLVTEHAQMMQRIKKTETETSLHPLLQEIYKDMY
The experiment in a line: In vitro PPARδ(β) LBD ligand binding assay (SPA, 3H-labeled ligand displacement). The note with it: 50 nM 3H-labeled ligand, His-tagged LBD bacterial lysate, SPA beads, 1 hour room temperature; read-out: IC50, half maximal inhibition/displacement of 3H labeled PPARδ(β) ligand binding to PPARδ(β) LBD. The source says:
FIG. 3: Illustrates results from a PPARδ(β) ligand binding assay.
This invention also provides methods for screening and identification of compounds that bind to and/or regulate PPARδ(β). The PPARδ(β) ligand binding domain (LBD) from a mammalian species including human and/or a non-mammalian species such as frog (Xenopus), is used for screening for compounds that bind to the LBD (Schmidt et al, Mol. Endocrinology, 6:1634-1641, 1992; Evans et al., Sequence XR-4 in U.S. Pat. No. 5,571,696, 1996; Berger et al. J. Biol. Chem., 274:6718-6725, 1999). […]
A single E.coli colony containing His-tagged PPARδ(β) LBD (amino acid 139-441, Schmidt et al., Mol. Endocrinology, 6:1634-1641, 1992) expressing plasmid DNA is mixed with 3 ml Luria broth (LB) supplemented with 100 μg/ml antibiotic ampicilin and grown at 37° C. […] The plates are then read on Packard top-count beta-scintillation counter (1 minute/well). […] In this binding assay any test compound may replace L-165041 and the binding affinity for PPARδ(β) is easily determined.

SMILES strings stand for the structures. Entries after “also recorded” stand apart in the source; their conditions may differ.

T1 sequence (P04386 1-144 partner limits assumed, one chain of several): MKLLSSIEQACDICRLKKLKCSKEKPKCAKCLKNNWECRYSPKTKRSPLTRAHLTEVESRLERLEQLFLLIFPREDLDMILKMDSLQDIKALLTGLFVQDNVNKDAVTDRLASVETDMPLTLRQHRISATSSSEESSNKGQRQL

On to `CCCc1c(OCCCOc2ccc(OCC(=O)O)cc2)ccc(C(C)=O)c1O` [Compound L-165041], for which the “Induction of SEAP reporter gene activity” value in assay [1] is given as “dose dependent activation of reporter gene SEAP function; also recorded: dose dependently induced reporter gene activity”. Besides, in assay [2], the IC50 was determined as 52 nM.
